These results are taken from ChEMBL document CHEMBL5375966, “Exploiting the "Hot-Spots" of Hsp70-Bim Protein-Protein Interaction to Optimize the 1-Oxo-1H-phenalene-2,3-dicarbonitrile Analogues as Specific Hsp70-Bim Inhibitors” (J Med Chem, 2023).

The structures appear in SMILES notation. The source made the active and inactive calls. No cut-off for these calls is given here. Where only a bound is given, the exact number is not on record here.

Data set [1] is described as follows: Inhibition of Fam-labeled BimBH3 peptide binding to N-terminal 6His-tagged human recombinant HSP70 NBD (1 to 383 residues) expressed in Escherichia coli BL21 (DE3) assessed as inhibition constant incubated for 24 hrs by fluorescence polarization assay.
Data set [2] can be described thus: Inhibition of Bim (unknown origin)- N-terminal 6His-tagged human recombinant HSP70 NBD (1 to 383 residues) expressed in Escherichia coli BL21 (DE3) protein protein interaction assessed as suppression of BimBH3-stimulated HSP70 ATPase activity.
The next data set is filed under the species Homo sapiens. The data set can be described thus: Inhibition of N-terminal 6His-tagged human recombinant HSP70 NBD (1 to 383 residues) expressed in Escherichia coli BL21 (DE3) ATPase activity.
The subject of the next data set is BV-173. The data set can be described thus: Induction of apoptosis in human BV-173 cells incubated for 24 hrs by annexin V/PI staining based flow cytometry analysis. The format is functional, cell-based. The note with it: BV-173, 24 h. In general terms: A flow cytometer gives signals particle by particle.
Data set [3] concerns K562. The data set can be described thus: Induction of apoptosis in human K562 cells incubated for 24 hrs by annexin V/PI staining based flow cytometry analysis. The note with it: K562, 24 h. The format is functional, cell-based.
The nature of data set [4]: Induction of apoptosis in human Imatinib-resistant K562-R3 cells incubated for 24 hrs by annexin V/PI staining based flow cytometry analysis. The format is functional. The note with it: Imatinib-resistant K562-R3 cell.
Data set [5] is described as follows: Induction of apoptosis in human HEK293 cells incubated for 24 hrs by annexin V/PI staining based flow cytometry analysis. The format is toxicity, cell-based.
Data set [6] is described as follows: Induction of apoptosis in mouse BaF3 cells incubated for 24 hrs by annexin V/PI staining based flow cytometry analysis. The format is toxicity, cell-based.
Another data set has as its system HEK293. The data set can be described thus: Induction of apoptosis in human HEK293 cells assessed as apoptotic rate at 15 uM incubated for 24 hrs by annexin V/PI staining based flow cytometry analysis relative to control. The format is toxicity, cell-based. The note with it: hek293, 24 h.
A further data set concerns BaF3. The data set can be described thus: Induction of apoptosis in mouse BaF3 cells assessed as apoptotic rate at 15 uM incubated for 24 hrs by annexin V/PI staining based flow cytometry analysis relative to control. The format is toxicity, cell-based. The note with it: baf3, 24 h.
For data set [7], the system named is K562. The data set can be described thus: Inhibition of HSP70-Bag3 protein protein interaction in human K562 cells at 10 uM incubated for 12 hrs by Co-IP analysis. The format is cell-based.

With `CCCCNC(=O)CCNC1=C(C#N)C(=O)c2cccc3c(SC4CCCCC4)ccc1c23`, the Ki in data set [1] came to 0.88 µM. Further, the inhibition result in data set [2] was “Active”.

`COC(=O)CCNC1=C(C#N)C(=O)c2cccc3c(Sc4ccc(C(C)(C)C)cc4)ccc1c23`: the Ki in data set [1] is greater than 20 µM. The inhibition result in data set [2] is “Active”.

As for `N#Cc1ccc(COC[C@H]2O[C@@H](n3c(NCc4ccc(Cl)c(Cl)c4)nc4c(N)ncnc43)[C@H](O)[C@@H]2O)cc1`, the Ki in [1] is greater than 20 µM. Also, the inhibition result in the data set filed under Homo sapiens is “Active”. The values for the EC50 (in the data set with BV-173; with K562 [3]; in data set [4]) were 5.8 µM, 7.8 µM and 8.5 µM, respectively. Moreover, the values for the EC50 at 24 h in data set [5] and in [6] were 7.7 µM and 5.5 µM, respectively.

Consider `COC(=O)CCNC1=C(C#N)C(=O)c2cccc3c(SCCO)ccc1c23`, for which the Ki in data set [1] was greater than 20 µM. Also, the inhibition entry in data set [2] is “Active”.

For `N#CC1=C(NCCN2CCN(Cc3ccccc3)CC2)c2ccc(SC3CCCCC3)c3cccc(c23)C1=O`, the Ki in [1] was greater than 20 µM. The inhibition entry in data set [2] is “Active”.

On to `N#CC1=C(NCCC(=O)NCc2ccccc2)c2ccc(SC3CCCCC3)c3cccc(c23)C1=O`, for which, in [1], the Ki was found to be 14.4 µM. In addition, the inhibition entry in [2] is “Active”.

Take `N#CC1=C(NCCC(=O)NC2CCCCC2)c2ccc(SC3CCCCC3)c3cccc(c23)C1=O`: in data set [1], the Ki was found to be 11 µM. The inhibition result in data set [2] is “Active”.

Take `COC(=O)CCNC1=C(C#N)C(=O)c2cccc3c(Sc4ccc(C)cc4)ccc1c23`: the Ki in data set [1] came out at 3.4 µM. The inhibition entry in data set [2] was “Active”.

For the compound `COC(=O)CCNC1=C(C#N)C(=O)c2cccc3c(Sc4ccccc4)ccc1c23`, in [1], the Ki was found to be 4.5 µM. The inhibition entry in [2] was “Active”.

As to `CCNCCNC1=C(C#N)C(=O)c2cccc3c(SC4CCCCC4)ccc1c23`, the Ki in data set [1] worked out at 0.72 µM. Further, the inhibition result in data set [2] is “Active”.

Regarding `COC(=O)CCNC1=C(C#N)C(=O)c2cccc3c(SCCc4ccccc4)ccc1c23`, in [1], the Ki is greater than 20 µM. Also, the inhibition entry in [2] was “Active”.

Turning to `CCN(CC)CCNC1=C(C#N)C(=O)c2cccc3c(SC4CCCC4)ccc1c23`, in data set [1], the Ki came out at 0.32 µM. Further, the inhibition entry in data set [2] was “Active”.

In the case of `N#CC1=C(NCCC(=O)O)c2ccc(SC3CCCCC3)c3cccc(c23)C1=O`, the Ki in [1] was greater than 20 µM. The inhibition result in data set [2] was “Active”.

`COC(=O)CCNC1=C(C#N)C(=O)c2cccc3c(Sc4ccc(C(C)C)cc4)ccc1c23`: the Ki in data set [1] is 16.2 µM. Moreover, the inhibition result in data set [2] was “Active”.

For `COC(=O)CCNC1=C(C#N)C(=O)c2cccc3c(SC4CCCCC4)ccc1c23`, the Ki in [1] came to 2.6 µM. Moreover, the inhibition entry in data set [2] is “Active”. Also, the figures for the EC50 (in the data set on BV-173; in the data set on K562 [3]; in data set [4]) were 6.1 µM, 9.4 µM and 1.7 µM, respectively. For the same compound, the Activity with HEK293 and with BaF3 was less than 10% each time.

As to `CCOC(=O)CN1CCN(CCNC2=C(C#N)C(=O)c3cccc4c(SC5CCCCC5)ccc2c34)CC1`, the Ki in data set [1] is 4.1 µM. Also, in data set [2], the inhibition entry is “Active”.

As to `CN(C)CCNC1=C(C#N)C(=O)c2cccc3c(SC4CCCCC4)ccc1c23`, the Ki in data set [1] stood at 0.57 µM. Besides, in [2], the inhibition entry is “Active”. Further, the EC50 in the data set with BV-173 is 1.1 µM; with K562 [3] it was 2.4 µM; in [4], 0.45 µM. For the same compound, the Activity in the data set with HEK293 was greater than 10%; in the data set on BaF3, less than 10%.

As for `CCCCSc1ccc2c3c(cccc13)C(=O)C(C#N)=C2NCCC(=O)OC`, in [1], the Ki was 14.5 µM. Also, in data set [2], the inhibition entry is “Active”.

For the compound `COC(=O)CCNC1=C(C#N)C(=O)c2cccc3c(Sc4ccc(N)cc4)ccc1c23`, the Ki in data set [1] is greater than 20 µM. Moreover, in data set [2], the inhibition result is “Active”.

`COC(=O)CCNC1=C(C#N)C(=O)c2cccc3c(Sc4cccc(N)c4)ccc1c23`: in data set [1], the Ki turned out to be 18.9 µM. Moreover, in [2], the inhibition result is “Active”.

Regarding `COC(=O)CCNC1=C(C#N)C(=O)c2cccc3c(Sc4ccc(Br)cc4)ccc1c23`, the Ki in data set [1] was determined as 2.5 µM. Further, in data set [2], the inhibition result was “Active”.

For `N#CC1=C(NCCN2CCOCC2)c2ccc(SC3CCCCC3)c3cccc(c23)C1=O`, the Ki in data set [1] stood at 1.8 µM. Further, in [2], the inhibition entry was “Active”.

Consider `COC(=O)CCNC1=C(C#N)C(=O)c2cccc3c(SC4CCCC4)ccc1c23`, for which the Ki in data set [1] came to 2.2 µM. In [2], the inhibition entry is “Active”.

Turning to `CCn1c(=O)/c(=C2\Sc3ccccc3N2C)s/c1=C\c1cccc[n+]1CC`, the inhibition entry with K562 [7] is “Active”.

The term Ki denotes the equilibrium dissociation constant of an inhibitor or competing ligand from its target. A word on the EC50: it is the concentration at which the effect is half-maximal. A low value points to greater potency.
